# Measurements reported in patent US9192552B2, “Personal care compositions with improved solubility of a solid UV active” (priority 2011, dated 2015).
# Where two headings read alike, the source gives them in different places.
# How the values were obtained:
# [1] = Solvency test: solubility of bis-ethylhexyloxyphenol methoxyphenyl triazine (bemotrizinol) in solvent, visible crystals after storage
# Method: (§1) In the testing provided below, “soluble” (or “solubilize”), in relation to the solubility of a solid solute being tested, means that no visible crystals may be seen after a prescribed storage period at a storage condition. The storage period can vary. Suitable storage periods include about 24 hours, about 1 week, and about 30 days. Suitable storage conditions include ambient conditions or cold storage at 5° C. (approximately 1 atm). In certain embodiments, solubility may be determined after a 24 hour storage period at ambient conditions. In other embodiments, solubility may be determined after 20 days in cold storage. Other testing parameters may include storage for prolonged time periods (e.g., 30 day, 50 days, 60 days, 90 days) and at variable temperatures (e.g., 5° C., 50° C.).
# The solvency of an isosorbide diester within the scope of the present invention was tested against two conventional, industry standard solvents. […] Solubility was also evaluated for samples stored for 7 day at 5° C. followed by equilibration to ambient conditions.
# [2] = Solvency test: solubility of butyl methoxydibenzoylmethane (avobenzone) in solvent, visible crystals after storage
# Method: as §1
# The solvency of an isosorbide diester within the scope of the present invention was tested against two conventional, industry standard solvents. […] Various ratios of the solute:solvent were prepared by mixing solvents and the solid sunscreen (solute) and heating to 70° C. Upon reaching 70° C., the examples may be mixed for about 10 minutes. The mixtures are placed in a covered vial and cooled to the storage temperature. Solubility was evaluated for samples stored 24 hours after mixing at room temperature. […]
# [3] = solute bemotrizinol (Tinosorb S), 24 hour rest at Ambient Conditions
# [4] = solute bemotrizinol (Tinosorb S), 30 day storage at 5° C.
# [5] = solute avobenzone (PARSOL 1789), 24 hour rest at Ambient Conditions
Solubility at Solute:Solvent Ratio 1:4 [1],Solubility at Solute:Solvent Ratio 1:6 [1],Solubility at Solute:Solvent Ratio 1:8 [1],Solubility at Solute:Solvent Ratio 1:2 [2],Solubility at Solute:Solvent Ratio 1:3 [2],Solubility at Solute:Solvent Ratio 1:4 [2],SMILES,"Solubility at Solute:Solvent Ratio 1:3 [1, 3]","Solubility at Solute:Solvent Ratio 1:4 [1, 3]","Solubility at Solute:Solvent Ratio 1:6 [1, 3]","Solubility at Solute:Solvent Ratio 1:8 [1, 3]","Solubility at Solute:Solvent Ratio 1:3 [1, 4]","Solubility at Solute:Solvent Ratio 1:6 [1, 4]","Solubility at Solute:Solvent Ratio 1:8 [1, 4]","Solubility at Solute:Solvent Ratio 14 [1, 4]","Solvency compared with the industry leading solvents ([1]; solute bemotrizinol, versus isopropyl lauroyl sarcosinate and C12-15 alkyl benzoate)","Solubility at Solute:Solvent Ratio 1:3 [2, 5]","Solubility at Solute:Solvent Ratio 1:4 [2, 5]","Solubility at Solute:Solvent Ratio 1:4 ([2]; solute avobenzone (PARSOL 1789), 30 day storage at 5° C.)","Solvency compared with the industry leading solvents ([2]; solute avobenzone, versus isopropyl lauroyl sarcosinate and C12-15 alkyl benzoate)"
S,S,S,S,S,S,"CCCCCCCCCCCC(=O)N(C)CC(=O)OC(C)C [Isopropyl lauroyl sarcosinate, isopropyl lauroyl sarcosinate, reference compound]",,,,,,,,,,,,,
,,,,,,"CCCCCCCC(=O)OC1COC2C(OC(=O)CCCCCCC)COC12 (stereo not shown) [Isosorbide dicaprylate, isosorbide dicaprylate]",S,S,S,S,S,S,S,S,superior to the industry leading solvents,S,S,S,equivalent to the industry leading solvents
